Results published in patent US10753892B2, “Non-invasive sensing of free metal ions using ion chemical exchange saturation transfer” (The Johns Hopkins University, priority 2013, dated 2020).
Where “and” joins values, the source holds several entries; their conditions need not be identical. Equal entries are not always repeated. Entries after “also recorded” stand apart in the source; their conditions may differ. Marks after values point to notes of the source that are not given here.

Legend:
[1] = 19F-iCEST MRI of 5F-BAPTA with Mg2+ (16.4 T, 37° C.); assay type: binding
Description: (§1) 5F-BAPTA was dissolved in Hepes buffer (40 mM) to a final concentration of 10 mM and the pH was adjusted to the following values: 5.6, 6.0, 6.4, 6.8, 7.0, 7.2, and 7.6. Stock 10 mM solutions of CaCl2, MgCl2, and ZnCl2 were prepared in 40 mM Hepes buffer. Five μL of the stock solution was added to 1 mL of 10 mM 5F-BAPTA resulting in a 200:1 ratio (10 mM: 50 μM) between the free 5F-BAPTA and the M^2+ ion following by a pH adjustment. One mL of each sample (with adjusted pH) was transferred into a 8 mm NMR tube within a 25 mm NMR tube in order to center the sample in the coil for the MRI experiments.
(§2) MRI experiments were performed on a vertical 16.4 T scanner (Bruker Avance system) at 37° C. A 25 mm birdcage radiofrequency coil was used to acquire both ^1H and ^19F MR images by sweeping the coil frequency from proton (700 MHz) to fluorine (658.8 MHz) frequency.
(§3) The saturation transfer effect on the free 5F-BAPTA, i.e., the MTR or iCEST, was calculated for each voxel in the image by using a Lorentzian line shape fitting as described in Jones et al. (Magn Reson Med 2012, 67, 1579), and Liu et al. (Molecular imaging 2012, 11, 47).
(§4) Saturation time (tsat) was either 1500 ms to 2000 ms as indicated in the text.

[2] = Relaxation times T1 and T2 of free 5F-BAPTA as a function of pH; assay type: physicochemical; conditions: pH 5.6, estimated from the Bloch equation fitting
[3] = 19F-iCEST MRI of 5F-BAPTA with Ca2+ (16.4 T, 37° C.), Bloch simulations; assay type: binding
Description: as §1, §2, §3
Numerical solutions to the six Bloch equations including direct saturation of free 5F-BAPTA were obtained as described previously (McMahon, M. T. et al., Magnetic Resonance in Medicine 2006, 55, 836). The relaxation parameters for ^19F used in the Bloch equations were R1=1/T1 with bound calcium (Rib)=0.71 s^−1, R2 bound calcium (R2b)=29 s^−1, whereas the R1 and R2 values of free 5F-BAPTA (R1f and R2f) were determined experimentally through inversion-recovery and saturation-recovery experiments as a function of pH on solutions containing 20 mM 5F-BAPTA as listed in Table 1 as follows:
as §4
An aqueous solution containing 0.5 mM of 5F-BAPTA and 500 nM in Hepes buffer (40 mM, pH=7.2) was transferred into a 20 mm NMR tube, which was located within a 25 mm NMR tube in order to centralize the sample in the coil for the MRI experiment. The same parameters used for ^19F-iCEST experiments were used except the followings: TR=3000 ms, RARE=8, FOV=6.0 cm (resolution=1.875×1.875 mm), and 168 averages.

[4] = 19F-iCEST MRI of 5F-BAPTA with Zn2+ (16.4 T, 37° C.); assay type: binding; conditions: 10 mM 5F-BAPTA, 50 μM Zn2+, pH 7.2 and 6.4
Description: as §1, §2, §3, §4

[5] = 19F-CEST experiments with 5F-BAPTA at pH 7.0 (11.7 T NMR, 16.4 T MRI); assay type: binding; conditions: 10 mM 5F-BAPTA, 100 μM M2+, saturation at Δω=5.8 ppm
Description: ^19F-CEST experiments were performed on solutions containing 1,2-Bis-[2-bis(carboxymethyl)amino-5-fluorophenoxy]ethane (5F-BAPTA), with and without divalent cations (M^2+).
Experiments were performed on an 11.7T NMR spectrometer (Bruker). 5F-BAPTA (AnaSpec, Inc.) was dissolved in 40 mM HEPES buffer (pH=7.0) to a concentration of 5 mM, and CaCl2 was dissolved to a final Ca^2+ concentration of 50 μm.
^19F-CEST spectra (z-spectra) were acquired with a saturation transfer sequence consisting of a saturation pulse (B1=4.7 μT, 4 sec) with variable offset (from −7.5 to +7.5 ppm relative to the 5FBAPTA frequency set at 0 ppm). Experiments were performed without (room temperature, RT) and with sample heating (37° C.). The MTRasym=100×(S−Δω−S+Δω)/S0 was computed at different offsets Δω, where S0 is the 5F-BAPTA signal without saturation.
Imaging experiments were performed on a 16.4T MRI scanner (Bruker). 5F-BAPTA was dissolved to 10 mM in 40 mM HEPES, pH=7.0, with or without 100 μM of M^2+ (Mg^2+, Zn^2+, or Ca^2+).
^19F-CEST images were acquired using a continuous wave presaturation pulse (B1=3.6 μT, 3 sec) followed by a multi-echo MRI pulse sequence (RARE, rare factor 4, TR/TE=6000/10 ms). FOV of 4×4 cm, matrix 32×32 and slice thickness 10 mm. Mean ^19F-CEST spectra were derived after B0 correction for each voxel using MatLab. MTRasym plots and maps were calculated.

[6] = Relaxation times T1 and T2 of free 5F-BAPTA as a function of pH; assay type: physicochemical; conditions: free 5F-BAPTA 20 mM
Description: The same image geometry as in the ^19F-CEST experiments was used for the determination of T1 and T2 of the imaged samples. For T1 measurements, a saturation recovery experiment was performed with TR values of 61, 214, 395, 615, 899, 1296 1964, and 4961 ms. A spin-echo experiment (TR=5000 ms) with multiple echoes was performed with variable echo times (TE=5, 10 15, 20, 25, 30, 35, and 40 ms) to determine the T2 value of each sample.
Numerical solutions to the six Bloch equations including direct saturation of free 5F-BAPTA were obtained as described previously (McMahon, M. T. et al., Magnetic Resonance in Medicine 2006, 55, 836). The relaxation parameters for ^19F used in the Bloch equations were R1=1/T1 with bound calcium (Rib)=0.71 s^−1, R2 bound calcium (R2b)=29 s^−1, whereas the R1 and R2 values of free 5F-BAPTA (R1f and R2f) were determined experimentally through inversion-recovery and saturation-recovery experiments as a function of pH on solutions containing 20 mM 5F-BAPTA as listed in Table 1 as follows: […]

[7] = cited from earlier work
[8] = Bloch simulations, two pool model
Description: (§5) Experiments were performed on solutions containing TF-BAPTA and multiple biologically relevant metal ions (K^+, Na^+, Ca^2+, Mg^2+, Cu^2+, Fe^2+ and Zn^2+) at 37° C. and pH=7.4. MR Spectroscopy as follows: TF-BAPTA was dissolved to a final concentration of 5 mM, and ions were add at 500 μM. Using 5-Fluorocytosine (5-FC) as an internal ^19F reference, ^19F-NMR spectra were acquired (11.7 T NMR spectrometer, Bruker). MRI: Experiments were performed on a 17.6 T MRI scanner (Bruker). TF-BAPTA was dissolved to 10 mM with 200″ AM of ion. A RARE (factor 8) sequence was used to acquire 1H MRI (TR/TE=5,000/7.7 ms, 1 mm slice, FOV=2×2 cm, matrix size=128×128). For ^19F MRI, the center frequency (O1) was set at the frequency of the 19F atom at the 6 position (0.0 ppm) of TF-BAPTA (FIG. 1a), while signal from the ^19F located at the 5 position of TF-BAPTA (FIG. 1a-b, 4.5 ppm downfield) was suppressed. A modified RARE sequence (TR/TE=4,000/3.4 ms, RARE factor=16, 6 mm slice, FOV=2×2 cm, matrix size=32×32, and a saturation pulse B1=1.2, 2.4 or 3.6 ItT/2 s) were used to acquire ^19F iCEST. Mean ^19F Z-spectra (iCEST spectra), were obtained after B0 correction. CEST contrasts, i.e., the magnetization transfer ratio (MTR) images were calculated after Lorentzian line shape fitting.

[9] = Bloch simulations, two pool model; remark: listed apart in the source
Description: as §5

[10] = London et al., 1994; cited from earlier work

## O=C(O)CN(CC(=O)O)c1ccc(F)cc1OCCOc1cc(F)ccc1N(CC(=O)O)CC(=O)O [5F-BAPTA, 2,2′,2″,2′″-(2,2′-(Ethane-1,2-diylbis(oxy))bis(4-fluoro-2,1-phenylene))bis(azanetriyl)tetraacetic acid]
[1]; 10 mM 5F-BAPTA, 50 μM Mg2+, pH 7.2 and 6.4
  iCEST contrast, Mg2+ containing sample: did not generate iCEST contrast
[1]; iCEST, FIG. 10b
  amplification factor for Mg2+: 10
[2]
  T2 (ms): 6^a ms
[3]; 0.5 mM 5F-BAPTA, pH 7.2
  Ca2+ concentration detected by iCEST: 500 nM
[3]; 10 mM 5F-BAPTA, 50 μM Ca2+, pH 7.2 and 6.4, B1=3.6 μT/2000 ms
  iCEST (saturation transfer) contrast, Ca2+ containing sample: pronounced saturation transfer contrast was detected; also recorded: large iCEST contrast was detected
[3]; Bloch simulations, all examined pH values
  kex between [Ca-5F-BAPTA] and 5F-BAPTA: 190 s⁻¹ and 190 ± 10 s⁻¹
[3]; iCEST, FIGS. 13a-c
  Ca2+ specificity in a Zn2+ background: high Ca^2+ specificity
[3]; iCEST, FIGS. 14a-c
  Ca2+ specificity in a Mg2+ background: high Ca^2+ specificity
[3]; iCEST, kex 190 s−1
  amplification factor for Ca2+: ~100
[3]; χCa=1:1000, 5 mM 5F-BAPTA, pH 7.2
  iCEST contrast in the Z-spectrum: ~11%
[4]
  iCEST contrast, Zn2+ containing sample: did not generate iCEST contrast
[5]
  19F-CEST MRI contrast among tubes with no M2+, Mg2+, Zn2+ or Ca2+: only the Ca^2+ containing solution generated contrast
[6]; pH 5.6
  T1: 715 ms
[6]; pH 6.0
  T1: 715 ms
  T2: 10 ms
[6]; pH 6.4
  T1: 715 ms
  T2: 11 ms
[6]; pH 6.8
  T1: 715 ms
  T2: 25 ms
[6]; pH 7.0
  T1: 715 ms
  T2: 32 ms
[6]; pH 7.2
  T1: 715 ms
  T2: 38 ms
[6]; pH 7.6
  T1: 715 ms

## O=C(O)CN(CC(=O)O)c1ccccc1OCCOc1ccccc1N(CC(=O)O)CC(=O)O [BAPTA, 1,2-bis(o-aminophenoxy)ethane-N,N,N′,N′-tetraacetic acid]
[3]; 50 μM Ca2+ with 200 μM Mg2+ or 50 μM Zn2+, 10 mM chelate, pH 7.2, Δω=6 ppm
  iCEST contrast produced by Ca2+ in mixtures: ~22%
[7]
  selectivity for Ca2+ over Mg2+: > 10^5

## O=C(O)CN(CC(=O)O)c1cc(F)c(F)cc1OCCOc1cc(F)c(F)cc1N(CC(=O)O)CC(=O)O [TF-BAPTA, 5,5′, 6,6′-tetrafluoro-BAPTA]
[8]
  exchange rate (kex) between free and Fe2+-bound TF-BAPTA: ~20 s⁻¹
[9]
  exchange rate (kex) between free and Zn2+-bound TF-BAPTA: ~20 s⁻¹
[10]
  exchange rate of Ca2+ with TF-BAPTA: ~30,000 s−1
